The values below are quoted from earlier work in patent US20160367620A1, “GLUTATHIONE” (priority 2015, published 2016).

For one data set, the system named is topoisomerase II. Conditions: cited from earlier work.
The test system of another data set is HIV-1. The note with it: human macrophages; cited from earlier work.
For a further data set, the system named is 8E5 cells. Conditions: HIV gene expression, low GSH-peroxidase activity; cited from earlier work.
The test system of data set [1] is murine macrophage J774 cells. The note with it: exposure to the NO-releasing compound; cited from earlier work.
A further data set relates to HIV-1 LTR. The note with it: Jurkat cells; cited from earlier work.
The next data set has as its system NFκB. Conditions: Jurkat cells, various concentrations; cited from earlier work.
The test system of another data set is HUVEC and QG90 cell. Conditions: pretreatment of HUVEC, IL-1 induced; cited from earlier work.
The next data set concerns Mouse. The note with it: subcutaneous injection; cited from earlier work.
In a further data set the test system is P-selectin. The note with it: human endothelial cells; cited from earlier work.
The test system of data set [2] is human immunodeficiency virus (HIV) expression. Conditions: U1 cells; cited from earlier work.

For `O=[N+]([O-])c1ccc(SSc2ccc([N+](=O)[O-])cn2)nc1` [2,2′ dithiobis (5-nitropyridine)], in the data set with topoisomerase II, the “topoisomerase II-mediated DNA cleavage” value was “caused topoisomerase II-mediated DNA cleavage”.
Take `CCCCS(=N)(=O)CCC(N)C(=O)O` (stereo not drawn) [BSO, buthionine sulfoximine]: the “HIV yield in the supernatant” value in the data set with HIV-1 is “significantly increased”.
In the case of `CCCCCC(/C=C/C=C\C/C=C\C/C=C\CCCC(=O)O)OO` (stereo not drawn) [Example 15-HPETE, 15-hydroperoxy eicosatetraenoic acid], in the data set with 8E5 cells, the “increase in sensitivity of 8E5 cells to killing” value is given as 10 fold.
`CCN1C(=O)C=CC1=O` [NEM, N-ethyl maleimide]: the “topoisomerase II-mediated DNA cleavage” value with topoisomerase II is recorded as “caused topoisomerase II-mediated DNA cleavage”.
In the case of `CC(=O)N[C@H](C(=O)O)C(C)(C)SN=O` [SNAP, S-nitroso-N-acetyl penicillamine], the viability of macrophages result in data set [1] was “diminished”.
With `N/C(=N\O)c1cc(O)c(O)c(O)c1` [TD, Trimidox], the “induction of HIV-1 LTR-mediated gene expression by TNF-α and Tat” value in the data set on HIV-1 LTR was “significantly suppressed”. Besides, the “TNF-α-induced NFκB binding” value in the data set on NFκB is recorded as “inhibited”.
On to `CC(=O)Oc1ccccc1C(=O)O` [aspirin], for which the “cell-to-cell attachment of cancer cells to HUVEC” value in the data set with HUVEC and QG90 cell is reported as “efficiently blocked the cell-to-cell attachment in a dose-dependent manner”.
As to `CN1CC[C@]23c4c5ccc(O)c4O[C@H]2C(=O)C=C[C@H]3[C@H]1C5` [morphinone], the “toxicity relative to morphine” value in the data set with Mouse is given as 9 times.
`CC(=O)CCCCn1c(=O)c2c(ncn2C)n(C)c1=O` [pentoxyphillin]: the “cell-to-cell attachment of cancer cells to HUVEC” value in the data set with HUVEC and QG90 cell was “efficiently blocked the cell-to-cell attachment in a dose-dependent manner”.
Take `O=C([O-])c1ccccc1O.[Na+]` [sodium salicylate]: the “IL-4 induced expression of P-selectin” value with P-selectin is reported as “inhibited”.
In the case of glutathione ester [GSE], in data set [2], the “induction of HIV expression mediated by PMA, TNF-α, or IL-6” value is reported as “suppressed in a dose-dependent fashion”.
